The values that follow come from PubChem BioAssay (NCI).

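Protocol summary: plate cells (96-well), add compound at 5 concentrations, incubate 48 h, interpolate endpoints linearly. GI50: concentration for 50% inhibition of growth. TGI: concentration producing complete growth inhibition.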

Common to all, as to assay: NCI-60 cell line screen, 48 h
Test [1] concerns CAKI-1 renal.
The subject of test [2] is HCC-2998 colon.
In test [3] the test system is HOP-62 NSCLC.
Test [4] has as its system HOP-92 NSCLC.
The test system of test [5] is HT29 colon.
Test [6] deals with IGROV1 ovarian.
Test [7] concerns OVCAR-5 ovarian.
Test [8] concerns SK-MEL-28 melanoma.
Test [9] relates to SN12C renal.
Test [10] relates to UACC-257 melanoma.
For test [11], the system named is UACC-62 melanoma.

For the compound `Clc1nc(Cl)c(Cl)c(Cl)n1`, the TGI in [1] came to 35.6 µM; in test [2] it was 35.5 µM; in test [3] it was 35.7 µM; in [4] it was 56.4 µM; in [5], 52.6 µM; in [6], 38.7 µM. In addition, the TGI in test [7] was found to be 43.1 µM; in [8] it was 41.3 µM; in test [9] it was 42.7 µM; in test [10], 31.1 µM; in [11], 35.7 µM.

Turning to `CCCCCCCCCCCCCCCCSCC(COC)COP(=O)([O-])OCC[N+](C)(C)C` (centres undefined), the TGI in test [1] stood at 12.7 µM; in test [2], 3.56 µM; in test [3], 15.6 µM; in test [4] it was 5.18 µM; in test [5] it was 12.8 µM; in test [6] it was 4.77 µM. Also, the TGI was found to be 26 µM in [7]; 29.5 µM in [8]; 11.3 µM in [9]; 28.8 µM in test [10]; 19.6 µM in test [11].

Take `C=C1C[C@@H](O)C[C@@]2(C)C[C@@H]3OC(=O)C(=C)[C@@H]3C[C@H]12`: the TGI in test [1] came out at 14.1 µM; in test [2], 14.2 µM; in test [3], 53.4 µM; in [4], 28.1 µM; in test [5] it was 10.8 µM; in test [6], 28.8 µM. Moreover, the TGI in test [7] amounted to 28 µM; in test [8], 14 µM; in test [9], 19.6 µM; in test [10], 15.9 µM; in test [11], 21 µM.

Turning to `C=C1C(=O)OC2(C)C3CCC(C3)C12` (centres undefined), the TGI in [1] was 99.4 µM; in [2] it was > 100 µM; in test [3] it was > 100 µM; in [4], 87.4 µM; in test [5], > 100 µM; in [6] it was > 100 µM. Moreover, the TGI in [7], in test [8], in test [9] and in [11] was > 100 µM in each case.

Take `O=C1CC(=O)c2c(O)cc(O)c(c2O)-c2c(ccc(O)c2O)C2=CC(=O)c3c(O)cc(O)c(c3O2)-c2c1ccc(O)c2O` (tested in a mixture with another compound): the TGI in test [1], in test [2], in [3], in test [4], in test [5] and in test [6] was > 50 µM each time. The TGI in test [7], in test [8], in [9], in test [10] and in [11] was > 50 µM throughout.

Consider `Cc1c2c(cc3c1[nH]c1ccccc13)C=NCC2`, for which the TGI is 31.6 µM in test [1]; 46.8 µM in test [2]; 56.4 µM in test [3]; 16.4 µM in test [4]; 31.7 µM in [5]; 49.5 µM in test [6]. Further, the TGI in [7] was found to be 61 µM; in test [8], 16.8 µM; in test [9] it was 62.6 µM; in [10] it was 19.6 µM; in [11], 21.5 µM.

On to `CCOC(=O)c1sc2nc(SC)nc3c2c1NC(=O)CN3c1cccc(F)c1`, for which the TGI was > 100 µM in test [1]; 28.3 µM in test [3]; 55.6 µM in test [4]; > 100 µM in test [5]; > 100 µM in [6]; > 100 µM in [7]. Also, the TGI in test [8] is 22.9 µM; in test [9], 35.5 µM; in [10] it was > 100 µM; in [11], > 100 µM.

On to `Cc1c(C(=O)N2CCN(c3ccc([N+](=O)[O-])cc3)CC2)[n+](=O)c2cc(Cl)c(Cl)cc2n1[O-]`, for which the TGI was found to be 64.3 µM in test [1]; 33.2 µM in [2]; 38.2 µM in [3]; 34.4 µM in [4]; 90.5 µM in [5]; 42.7 µM in [6]. The TGI in test [7] was 44 µM; in test [8] it was 73.4 µM; in test [9] it was 38.2 µM; in [10], > 100 µM; in test [11], 34 µM.

As for `COC(=O)C1=C(C)NC2(O)C=CC(=O)C3C(=O)N(c4ccccc4)C(=O)C132` (centres undefined), the TGI was > 100 µM in test [1]; > 100 µM in test [2]; > 100 µM in test [3]; > 100 µM in test [4]; 70.3 µM in [5]; > 100 µM in test [6]. The TGI in test [7] is > 100 µM; in test [8], 78.7 µM; in test [9], > 100 µM; in [10], > 100 µM; in [11] it was > 100 µM.

Regarding `CCOc1cc(NC(C)=O)ccc1C(=O)NN1C(=O)C(Oc2ccccc2)C1c1ccccc1` (centres undefined), the TGI in [1], in test [2], in test [3], in [4], in [5] and in test [6] was > 100 µM in each case. The TGI in test [7], in [8], in [9], in [10] and in [11] was > 100 µM each time.

Regarding `Clc1ccc(Cc2nc3ccc(CCN4CCN(c5ccccc5)CC4)cc3[nH]2)cc1`, the TGI in test [1] was determined as 38.6 µM; in test [3], 30.5 µM; in test [4] it was 73.8 µM; in [5], 22.5 µM; in [6] it was 90.6 µM; in test [7] it was 66.4 µM. For the same compound, the TGI in [8] worked out at 54.3 µM; in test [9], 33.8 µM; in test [10], 18.8 µM; in [11], 33.6 µM.

Regarding `Cc1cc(O)c2c(c1O)C(=O)C13C(=C2O)C(=O)C2C(O)C1C1C(O)C3C(=O)C3=C(O)c4c(O)cc(C)c(O)c4C(=O)C321` (centres undefined), the TGI in [1] stood at 0.696 µM; in [2] it was 0.329 µM; in test [3], 0.526 µM; in [5], 0.406 µM; in [6], 2.06 µM; in [7] it was 9.41 µM. Moreover, the TGI in [8] was 0.59 µM; in test [10], 3.46 µM.

Consider `CNc1ccc(-c2nc3cc(C)ccc3o2)cc1`, for which the TGI in test [1], in [2], in test [3], in [4], in [5] and in test [6] was > 100 µM each time. The TGI in test [7], in [8], in [9], in test [10] and in test [11] was > 100 µM in each case.

Regarding `CCOC(=O)Nc1c(C#N)[n+]([O-])c2cc(Cl)c(Cl)cc2[n+]1[O-]`, the TGI in test [1] is 40.4 µM; in [3], > 100 µM; in test [4], 23 µM; in [5], 37.3 µM; in test [6], 28.6 µM; in test [8], 30.7 µM. Also, the TGI in [9] came out at 32 µM; in [10], 36.1 µM; in test [11], 31.1 µM.

On to `CN(C(=O)Cc1ccc(Cl)c(Cl)c1)[C@H]1CCCC[C@@H]1[N+]1(C)CCCC1`, for which the TGI in test [1], in [3], in [5], in [6], in test [7] and in test [8] was > 100 µM throughout. The TGI in [9], in test [10] and in test [11] was > 100 µM each time.

Consider `NCCCn1c2ccccc2c2c3c(c4c(c21)CCC(O)CC4)C(=O)NC3=O` (centres undefined), for which the TGI turned out to be 16.6 µM in [1]; 4.24 µM in test [2]; 15.9 µM in test [3]; 12.9 µM in [4]; 4.99 µM in test [5]; 21.5 µM in [6]. For the same compound, the TGI in [7] was found to be 15.5 µM; in test [8], 13.1 µM; in test [9], 13.6 µM; in test [10], 29.7 µM; in test [11], 17.3 µM.

For `O=C(CC/C=C(/CS(=O)(=O)c1ccccc1)S(=O)(=O)c1ccccc1)c1ccccc1`, the TGI in [2], in test [3], in test [4], in [5], in [6] and in test [7] was > 100 µM each time. Moreover, the TGI in test [8], in [9], in test [10] and in test [11] was > 100 µM throughout.

As for `CC(=O)[C@@H]1CCC=C2CC[C@]3(C)[C@@H](CC[C@@H]4[C@@]5(C)CCCNC(C)(C)[C@@H]5CC[C@]43C)[C@H]21`, the GI50 is 1.81 µM in [1]; 1.82 µM in test [3]; 1.37 µM in test [4]; 1.2 µM in [5]; 1.69 µM in test [6]; 1.81 µM in [8]. In addition, the results for the GI50 in test [9], in [10] and in test [11] were 1.79 µM, 2.19 µM and 1.73 µM, respectively. Also, the TGI in test [1] is 3.22 µM; in test [3], 3.4 µM; in [4], 2.77 µM; in test [5], 2.58 µM; in [6], 3.28 µM; in test [8], 3.35 µM. The TGI in test [9] came out at 3.31 µM; in [10], 4.29 µM; in [11], 3.16 µM.

Take `COc1cccc(-c2ccc3c4c2O[C@H]2c5[nH]c6ccccc6c5C[C@@]5(O)[C@@H](C3)N(CC3CC3)CC[C@]425)c1`: the TGI in test [1] is 4.9 µM; in [2], 2.87 µM; in test [3] it was 3.12 µM; in test [4], 3.04 µM; in [5] it was 3.19 µM; in test [6] it was 3.04 µM. Further, the TGI is 20.8 µM in test [7]; > 23.1 µM in test [8]; 3.13 µM in [9]; 3.2 µM in test [10]; 3.05 µM in test [11].

For the compound `O=C(NCCCCCCNC(=O)n1cc(F)c(=O)[nH]c1=O)NCCCOCCOCCCNC(=O)C(O)C(O)C(O)C(O)CO` (centres undefined), the TGI in test [2], in test [3], in test [4], in test [5], in [6] and in test [7] was > 2.5 µM throughout. Further, the TGI in [8], in test [9], in [10] and in test [11] was > 2.5 µM throughout.

Consider `COc1ccc(S(=O)(=O)O)cc1-n1nc(C(=O)Nc2ccccc2)n[n+]1-c1cc(S(=O)(=O)[O-])ccc1OC`, for which the TGI in [1], in [2], in test [3], in test [5], in test [6] and in test [7] was > 100 µM each time. The TGI in [8], in test [9] and in test [11] was > 100 µM throughout.

For `CC(=O)NCCC1CN(C(=O)/C=C\C#C[Si](C)(C)C)c2ccccc21` (centres undefined), the TGI in test [1] was 33.2 µM; in [2] it was 43.2 µM; in [4], > 100 µM; in test [5] it was 58.9 µM; in test [6], 30.8 µM; in test [7], 33.7 µM. Further, the TGI in test [8] is > 100 µM; in test [9] it was > 100 µM; in test [10] it was 9.27 µM; in [11] it was 32.4 µM.

As to `O=C(Nc1c[nH]c(=O)[nH]c1=O)C(Cl)Cl`, the TGI in test [1], in [2], in test [3], in test [4], in [5] and in test [6] was > 100 µM throughout. The TGI in test [8], in test [9], in test [10] and in test [11] was > 100 µM each time.

With `CC(=O)OCC1OC(n2cc(F)c(=O)[nH]c2=O)C(N)C(OC(C)=O)C1OC(C)=O` (centres undefined), the TGI in test [1], in [2], in [3], in test [4], in [5] and in test [6] was > 100 µM throughout. Further, the TGI in test [7], in test [9], in test [10] and in test [11] was > 100 µM each time.
